Laboratory results published in US20250188085A1, “COMPOSITIONS AND METHODS FOR INHIBITION OF RAS” (THERAS, INC., priority 2022, published 2025).

Columns and labels:
[1] = molecular target: T1, GDP-loaded KRAS4b (amino acids 1-169) G12C/C118S protein (Homo sapiens, UniProt P01116, C118S/G12C); assay: Covalent cysteine 12 modification by MALDI-TOF MS, GDP-loaded KRAS G12C; type: binding; conditions: 15 minutes reaction time point
T1 construct: KRAS4b (amino acids 1-169) G12C/C118S protein; made in house
Outline: (§1)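 KRAS4b 1-169 G12C/C118S loaded with GDP, GppNHp or GTP was used at 1 μM in 20 mM HEPES, 150 mM NaCl, 1 mM MgCl2, pH 7.3, and incubated with compound (5 mM DMSO stock) at room temperature in the dark. % modification at 15 min is adduct peak height over total protein peak heights by linear-mode MALDI-TOF.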

[2] = molecular target: T2, GTP-loaded KRAS4b (amino acids 1-169) G12C/C118S protein (Homo sapiens, UniProt P01116, C118S/G12C); assay: Covalent cysteine 12 modification by MALDI-TOF MS, GTP-loaded KRAS G12C; type: binding; conditions: 15 minutes reaction time point
T2 construct: KRAS4b (amino acids 1-169) G12C/C118S protein; made in house
Experimental: Reaction: 1 μM of GppNHp-, GTP-, or GDP-loaded KRAS4b (amino acids 1-169) G12C/C118S protein (produced in-house by Protein Expression Laboratory, FNLCR/Leidos Biomed) in 20 mM 4-(2-hydroxyethyl)-1-piperazineethanesulfonic acid (HEPES) buffer containing 150 mM NaCl, 1 mM MgCl2, pH 7.3 was prepared freshly before assay. Ten-μL aliquots of protein were dispensed onto low volume 384-well plate, then 375 nL DMSO, and 25 nL of tested compounds from 5 mM DMSO stocks were added to appropriate wells using ECHO 555 acoustic liquid handler (Labcyte Inc.). For each reaction/assay, three blanks were prepared by mixing 10 μL of protein solution with 400 nL DMSO. The contents of the wells were carefully mixed by aspiration, and then each plate was sealed with an adhesive cover, centrifuged at 2000 g for 1 minute, and kept in the dark at room temperature until 5 min, 15 min, 30 min, or 2 h collections.
Target pretreatment: Before each assay MALDI target (Bruker MPT 384 ground steel BC) was pre-treated by pipetting on each spot 0.75 μL of saturated sinapinic acid in acetonitrile (ACN).
Sample preparation: At collection time point, 2 μL of reaction mixtures were pipetted out into 20 μL MALDI matrix solution (saturated solution of sinapinic acid in 1:1 ACN:water solution containing 0.75% trifluoroacetic acid (TFA)) deposited on 384 well polypropylene plate. Resulting solution was mixed by aspiration, centrifuged at 2000 g for 1 minute, then 1 μL aliquots were dispensed on pre-treated MALDI target using Beckman Coulter Biomek FXP 96/384-Span-8 Laboratory Automation Workstation. Finally, the MALDI target was dried under mild vacuum to produce spots with fine crystalline structure.
Measurements: MALDI-TOF measurements were performed on a Bruker Daltonics rapiflex Tissuetyper TOF-TOF mass spectrometer using linear mode and mass range from 18.6 to 21.6 kDa. Detector gain was set to 3.3× (483 V), sample rate to 5 GS/s, real time smoothing to medium (175 MHz), laser smart beam pattern was set to: “MS Thin Layer M5”, and the laser frequency was 10000 Hz. Spectra were automatically collected using custom Auto Xecute method. Laser power was auto adjusted using fuzzy control. The peak selection range was set to be between 19000 and 21500 Da. Peak evaluation uses half width parameter set to be smaller than 40 Da for processed spectrograms (centroid peak detection; smoothed by SavitzkyGolay algorithm using 7 m/z width and 2 cycles; baseline was subtracted using median algorithm with flatness 1 and median level 0.01). Fuzzy control used Proteins/Oligonucleotides protocol with minimum half width 1/10 times above threshold. Up to 40000 satisfactory shots were collected in 10000 shot steps. Dynamic termination was implemented to finish data collection when peak signal/noise ratio was reaching value of 50.
Spectra processing: Spectra were smoothed by SavitzkyGolay algorithm using 7 m/z width and three cycles. Centroid peak detection algorithm was used with signal to noise threshold set to 6, relative intensity threshold 4%, peak width 10 m/z and median baseline subtraction using flatness of 1 and median level of 0.01. Peak intensity and area under the peak were evaluated and recorded for all peaks between 19,300 Da and 21,550 Da.
Calculation of percent modification: Percent modification was calculated as a ratio of peak height for protein modified by compound to sum of peak height of remaining protein plus peak height for protein modified by compound. If multiple modifications were observed each was calculated as a ratio of peak height for given modification versus sum of peak heights for all observed protein species. Data reported in Table 5 are from 15 minutes reaction time point.

[3] = molecular target: T3, GppNHp-loaded KRAS4b (amino acids 1-169) G12C/C118S protein (Homo sapiens, UniProt P01116, C118S/G12C); assay: Covalent cysteine 12 modification by MALDI-TOF MS, GppNHp-loaded KRAS G12C; type: binding; conditions: 15 minutes reaction time point
T3 construct: KRAS4b (amino acids 1-169) G12C/C118S protein; made in house
Outline: as §1

pERK in NCI-H358 cells = assay: Cell-based pERK HTRF assay; conditions: Homo sapiens, NCI-H358, 0.5 h, 30 min incubation, read-out: pERK in NCI-H358 cell inhibition IC50
Outline: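 Cells seeded at 4×10^4/well in RPMI with 10% FBS, then next day treated for 30 min with a 9-point, 3-fold series from 75 μM top concentration at 0.25% DMSO. Lysates were read for pERK by HTRF (d2/Eu cryptate antibodies) after 4–24 h at room temperature, emission at 615 nm.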

[4] = molecular target: T4, Avi-KRAS G12C (1-169) GppNHp/RAF1 RBD-3×FLAG (52-151) (Homo sapiens, UniProt P01116, G12C); assay: Raf1 RBD-KRAS G12C-GppNHp disruption (protein:protein interaction HTRF assay); type: biochemical
T4 construct: Avi-KRAS G12C (1-169) GppNHp/RAF1 RBD-3×FLAG (52-151)
Outline: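 HTRF measuring disruption of 50 nM Avi-KRAS G12C (1-169) loaded with GppNHp binding RAF1 RBD-3×FLAG (52-151), in pH 7.5 Tris buffer with 5 mM MgCl2, 0.1% BSA, 10% DMSO. KRAS preincubated with compound 1 h, then RBD 1 h, then detection reagents 1 h, all at room temperature. Compound titration 30-0.02 μM; activity expressed as percent of DMSO control.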

| Compound | GDP-KRAS G12C percent of modification [1] | GTP-KRAS G12C percent of modification [2] | GppNHp-KRAS G12C percent of modification [3] | IC50 (pERK in NCI-H358 cells) | IC50 [4] |
| --- | --- | --- | --- | --- | --- |
| C=CC(=O)N1CC[C@@H](Oc2nc(OC[C@@]34CCCN3C[C@H](F)C4)nc3c(F)c(-c4ccc(F)c5sc(N)c(C#N)c45)ccc23)[C@H]1C [Compound 76, 4-(4-(((2R,3R)-1-acryloyl-2-methylpyrrolidin-3-yl)oxy)-8-fluoro-2-(((2R,7aS)-2-fluorotetrahydro-1H-pyrrolizin-7a (5H)-yl)methoxy)quinazolin-7-yl)-2-amino-7-fluorobenzo[b]thiophene-3-carbonitrile] | A (percent of modification ≥70%) | A (percent of modification ≥70%) | A (percent of modification ≥70%) | ≤ 100 nM | ≤ 500 nM |
| C=CC(=O)N1CC[C@@H](Oc2nc(OC[C@@]34CCCN3C[C@H](F)C4)nc3c(F)c(-c4ccc(F)c5sc(N)c(C#N)c45)c(Cl)cc23)[C@H]1COC [Compound 111] | C (10%≤modification <50%) | D (percent of modification <10%) | D (percent of modification <10%) | ≤ 100 nM | 500 to 5000 nM |
| C=CC(=O)N1CCC(Oc2nc(OC[C@@]34CCCN3C[C@H](F)C4)nc3c(F)c(-c4ccc(F)c5sc(N)nc45)c(C(F)(F)F)cc23)C1(C)C (some centres unmarked) [Compound 45] | B (50≤percent of modification <70%) | C (10%≤modification <50%) | C (10%≤modification <50%) | ≤ 100 nM | ≤ 500 nM |
| C=CC(=O)N1CC[C@@H](Oc2nc(OC[C@@]34CCCN3C[C@H](F)C4)nc3c(F)c(-c4ccc(F)c5sc(N)c(C#N)c45)ccc23)C1 [Compound 51] | A (percent of modification ≥70%) | A (percent of modification ≥70%) | A (percent of modification ≥70%) | ≤ 100 nM | ≤ 500 nM |
| C=CC(=O)N1CC[C@@H](Oc2nc(OC[C@@]34CCCN3C[C@H](F)C4)nc3c(Cl)c(-c4ccc(F)c5sc(N)nc45)c(C(F)(F)F)cc23)C1 (atropisomer, axis not shown) [Compound 44] | A (percent of modification ≥70%) | B (50≤percent of modification <70%) | A (percent of modification ≥70%) | ≤ 100 nM | ≤ 500 nM |
| C=CC(=O)N1CC[C@@H](Oc2nc(OC[C@@]34CCCN3C[C@H](OC)C4)nc3cc(-c4ccc(F)c5sc(N)c(C#N)c45)c(C(F)(F)F)cc23)[C@H]1C [Compound 102] | A (percent of modification ≥70%) | A (percent of modification ≥70%) | A (percent of modification ≥70%) | ≤ 100 nM | ≤ 500 nM |
| C=CC(=O)N1C[C@H](Oc2nc(OC[C@@]34CCCN3C[C@H](F)C4)nc3cc(-c4ccc(F)c5sc(N)c(C#N)c45)c(C(F)(F)F)cc23)[C@@H](F)C1 [Compound 49] | C (10%≤modification <50%) | C (10%≤modification <50%) | B (50≤percent of modification <70%) | ≤ 100 nM | ≤ 500 nM |
